Our source for the IC50, Activity and inhibition values is ChEMBL document CHEMBL5223127, “Fragment-based discovery of novel phenyltriazolyl derivatives as allosteric type-I1/2 ALK inhibitors with promising antitumor effects” (Bioorg Med Chem Lett, 2022).

In one assay the test system is KARPAS-299. Description: Antiproliferative activity against human KARPAS-299 cells by MTT assay.
Assay [1] concerns NCI-H2228. The assay can be described thus: Antiproliferative activity against human NCI-H2228 cells by MTT assay.
For a further assay, the system named is A549. Description: cells. To be noted: Homo sapiens.
Assay [2] concerns the target ALK tyrosine kinase receptor (Homo sapiens, UniProt Q9UM73). Description: Inhibition of wild type ALK (unknown origin).
Assay [3] concerns the target ALK tyrosine kinase receptor (Homo sapiens, UniProt Q9UM73, L1196M). Description: Inhibition of ALK L1196M mutant (unknown origin).
Assay [4] deals with Epidermal growth factor receptor (Homo sapiens, UniProt P00533). Description: Inhibition of EGFR (unknown origin).
Assay [5] deals with Hepatocyte growth factor receptor (Homo sapiens, UniProt P08581). Description: Inhibition of c-MET (unknown origin).
Assay [6] relates to NCI-H2228. Description: Induction of apoptosis in human NCI-H2228 cells assessed as nuclear contraction incubated for 24 hrs by Hoechst 33342 staining based fluorescence microscopy assay. In kind it is functional, cell-based. To be noted: dose 25-100 nM.
In assay [7] the test system is NCI-H2228. The assay can be described thus: Induction of apoptosis in human NCI-H2228 cells assessed as nuclear fragmentation incubated for 24 hrs by Hoechst 33342 staining based fluorescence microscopy assay. The format is functional, cell-based. Particulars: dose 25-100 nM.
Assay [8] concerns NCI-H2228. Description: Inhibition of colony formation in human NCI-H2228 cells incubated for 24 hrs. Particulars: dose 0.25-1 µM. The format is functional, cell-based.
Assay [9] deals with NCI-H2228. Description: Inhibition of colony formation in human NCI-H2228 cells at 1 uM incubated for 24 hrs. In kind it is functional.
Assay [10] relates to NCI-H2228. Description: Antimigratory activity against human NCI-H2228 cells incubated for 48 hrs by wound healing assay. In kind it is functional, cell-based. Particulars: dose 12.5-50 nM.

Chain of ALK tyrosine kinase receptor (Homo sapiens, UniProt Q9UM73) (Q9UM73 whole entry): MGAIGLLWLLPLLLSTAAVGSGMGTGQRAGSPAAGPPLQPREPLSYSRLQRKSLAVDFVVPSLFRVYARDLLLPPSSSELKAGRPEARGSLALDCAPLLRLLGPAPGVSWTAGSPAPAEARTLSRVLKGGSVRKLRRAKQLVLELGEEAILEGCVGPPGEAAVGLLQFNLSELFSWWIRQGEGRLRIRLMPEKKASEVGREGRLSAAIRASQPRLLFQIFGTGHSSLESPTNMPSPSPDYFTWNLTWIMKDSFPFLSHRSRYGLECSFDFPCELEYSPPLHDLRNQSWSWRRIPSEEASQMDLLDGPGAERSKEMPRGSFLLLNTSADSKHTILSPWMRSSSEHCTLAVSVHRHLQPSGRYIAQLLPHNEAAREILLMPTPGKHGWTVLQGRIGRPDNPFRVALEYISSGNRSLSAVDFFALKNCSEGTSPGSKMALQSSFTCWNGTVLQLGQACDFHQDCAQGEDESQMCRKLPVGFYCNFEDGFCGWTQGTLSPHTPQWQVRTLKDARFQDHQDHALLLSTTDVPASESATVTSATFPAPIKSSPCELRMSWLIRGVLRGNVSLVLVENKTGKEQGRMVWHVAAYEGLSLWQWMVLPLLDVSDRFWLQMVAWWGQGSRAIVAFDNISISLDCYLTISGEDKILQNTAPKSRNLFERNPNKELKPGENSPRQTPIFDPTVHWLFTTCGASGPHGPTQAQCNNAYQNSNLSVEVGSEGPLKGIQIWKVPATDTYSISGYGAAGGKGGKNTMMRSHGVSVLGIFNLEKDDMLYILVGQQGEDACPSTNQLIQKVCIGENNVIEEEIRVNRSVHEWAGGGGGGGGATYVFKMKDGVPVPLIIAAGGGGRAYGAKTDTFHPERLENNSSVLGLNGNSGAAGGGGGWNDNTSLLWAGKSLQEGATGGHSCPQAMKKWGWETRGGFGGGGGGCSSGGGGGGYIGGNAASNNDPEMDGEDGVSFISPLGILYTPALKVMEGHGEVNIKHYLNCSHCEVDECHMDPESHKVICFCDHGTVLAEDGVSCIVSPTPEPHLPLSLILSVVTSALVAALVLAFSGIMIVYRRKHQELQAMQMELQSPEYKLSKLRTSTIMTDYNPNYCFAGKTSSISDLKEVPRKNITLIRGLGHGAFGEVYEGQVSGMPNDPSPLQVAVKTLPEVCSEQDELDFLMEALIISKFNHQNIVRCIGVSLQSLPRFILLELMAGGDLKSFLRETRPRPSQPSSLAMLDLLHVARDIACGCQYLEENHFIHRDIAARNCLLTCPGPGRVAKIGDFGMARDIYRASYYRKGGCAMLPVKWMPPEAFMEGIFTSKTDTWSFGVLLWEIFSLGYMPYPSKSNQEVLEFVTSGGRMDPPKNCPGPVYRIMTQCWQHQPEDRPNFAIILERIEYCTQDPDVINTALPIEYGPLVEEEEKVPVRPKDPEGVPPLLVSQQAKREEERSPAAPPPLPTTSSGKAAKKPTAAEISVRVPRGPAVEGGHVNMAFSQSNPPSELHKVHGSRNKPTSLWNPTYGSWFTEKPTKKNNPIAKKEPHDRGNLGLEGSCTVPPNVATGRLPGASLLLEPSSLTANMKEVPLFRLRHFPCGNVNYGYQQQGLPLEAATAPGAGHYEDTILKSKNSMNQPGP
Chain of ALK tyrosine kinase receptor (Homo sapiens, UniProt Q9UM73, L1196M) (Q9UM73 19-1620 L1196M limits assumed): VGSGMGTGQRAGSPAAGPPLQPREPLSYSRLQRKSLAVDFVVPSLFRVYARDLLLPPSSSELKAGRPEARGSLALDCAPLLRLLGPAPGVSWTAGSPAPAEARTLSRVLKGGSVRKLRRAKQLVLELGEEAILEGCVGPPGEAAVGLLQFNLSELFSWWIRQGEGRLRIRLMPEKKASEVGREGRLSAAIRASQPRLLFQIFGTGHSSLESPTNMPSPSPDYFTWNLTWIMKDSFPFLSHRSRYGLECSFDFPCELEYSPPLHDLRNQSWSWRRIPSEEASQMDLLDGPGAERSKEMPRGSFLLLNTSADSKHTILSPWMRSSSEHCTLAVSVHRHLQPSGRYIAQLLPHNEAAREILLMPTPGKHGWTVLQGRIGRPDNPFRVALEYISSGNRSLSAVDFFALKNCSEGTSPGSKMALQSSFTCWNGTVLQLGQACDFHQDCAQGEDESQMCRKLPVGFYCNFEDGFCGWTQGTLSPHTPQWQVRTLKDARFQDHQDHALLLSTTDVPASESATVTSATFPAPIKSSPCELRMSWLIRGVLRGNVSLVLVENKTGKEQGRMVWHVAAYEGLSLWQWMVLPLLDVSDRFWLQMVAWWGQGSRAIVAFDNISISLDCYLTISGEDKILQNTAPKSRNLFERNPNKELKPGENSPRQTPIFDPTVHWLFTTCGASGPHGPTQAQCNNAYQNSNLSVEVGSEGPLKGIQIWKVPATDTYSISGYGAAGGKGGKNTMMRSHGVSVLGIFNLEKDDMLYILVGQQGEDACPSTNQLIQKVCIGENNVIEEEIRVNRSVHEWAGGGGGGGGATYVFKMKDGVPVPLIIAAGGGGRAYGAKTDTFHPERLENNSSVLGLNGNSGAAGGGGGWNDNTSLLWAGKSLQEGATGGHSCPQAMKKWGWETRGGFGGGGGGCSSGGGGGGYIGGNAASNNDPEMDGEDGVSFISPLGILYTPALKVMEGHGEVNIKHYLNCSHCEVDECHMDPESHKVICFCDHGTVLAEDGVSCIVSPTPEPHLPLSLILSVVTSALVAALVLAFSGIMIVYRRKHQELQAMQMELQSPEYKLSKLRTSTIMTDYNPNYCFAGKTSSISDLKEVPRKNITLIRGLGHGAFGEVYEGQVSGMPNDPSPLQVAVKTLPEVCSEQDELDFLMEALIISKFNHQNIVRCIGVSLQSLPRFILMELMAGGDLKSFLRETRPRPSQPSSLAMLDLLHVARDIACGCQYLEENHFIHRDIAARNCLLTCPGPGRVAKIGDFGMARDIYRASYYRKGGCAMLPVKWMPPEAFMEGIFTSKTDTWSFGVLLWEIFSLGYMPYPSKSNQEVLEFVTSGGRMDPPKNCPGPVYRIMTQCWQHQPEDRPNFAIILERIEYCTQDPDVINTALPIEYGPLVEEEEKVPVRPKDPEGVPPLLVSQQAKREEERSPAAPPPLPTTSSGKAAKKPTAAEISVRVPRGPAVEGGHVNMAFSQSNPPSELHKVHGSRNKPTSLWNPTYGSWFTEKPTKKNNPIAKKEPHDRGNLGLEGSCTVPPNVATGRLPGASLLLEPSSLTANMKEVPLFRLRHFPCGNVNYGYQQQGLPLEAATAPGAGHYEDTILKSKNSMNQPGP
Chain of Hepatocyte growth factor receptor (P08581 whole entry): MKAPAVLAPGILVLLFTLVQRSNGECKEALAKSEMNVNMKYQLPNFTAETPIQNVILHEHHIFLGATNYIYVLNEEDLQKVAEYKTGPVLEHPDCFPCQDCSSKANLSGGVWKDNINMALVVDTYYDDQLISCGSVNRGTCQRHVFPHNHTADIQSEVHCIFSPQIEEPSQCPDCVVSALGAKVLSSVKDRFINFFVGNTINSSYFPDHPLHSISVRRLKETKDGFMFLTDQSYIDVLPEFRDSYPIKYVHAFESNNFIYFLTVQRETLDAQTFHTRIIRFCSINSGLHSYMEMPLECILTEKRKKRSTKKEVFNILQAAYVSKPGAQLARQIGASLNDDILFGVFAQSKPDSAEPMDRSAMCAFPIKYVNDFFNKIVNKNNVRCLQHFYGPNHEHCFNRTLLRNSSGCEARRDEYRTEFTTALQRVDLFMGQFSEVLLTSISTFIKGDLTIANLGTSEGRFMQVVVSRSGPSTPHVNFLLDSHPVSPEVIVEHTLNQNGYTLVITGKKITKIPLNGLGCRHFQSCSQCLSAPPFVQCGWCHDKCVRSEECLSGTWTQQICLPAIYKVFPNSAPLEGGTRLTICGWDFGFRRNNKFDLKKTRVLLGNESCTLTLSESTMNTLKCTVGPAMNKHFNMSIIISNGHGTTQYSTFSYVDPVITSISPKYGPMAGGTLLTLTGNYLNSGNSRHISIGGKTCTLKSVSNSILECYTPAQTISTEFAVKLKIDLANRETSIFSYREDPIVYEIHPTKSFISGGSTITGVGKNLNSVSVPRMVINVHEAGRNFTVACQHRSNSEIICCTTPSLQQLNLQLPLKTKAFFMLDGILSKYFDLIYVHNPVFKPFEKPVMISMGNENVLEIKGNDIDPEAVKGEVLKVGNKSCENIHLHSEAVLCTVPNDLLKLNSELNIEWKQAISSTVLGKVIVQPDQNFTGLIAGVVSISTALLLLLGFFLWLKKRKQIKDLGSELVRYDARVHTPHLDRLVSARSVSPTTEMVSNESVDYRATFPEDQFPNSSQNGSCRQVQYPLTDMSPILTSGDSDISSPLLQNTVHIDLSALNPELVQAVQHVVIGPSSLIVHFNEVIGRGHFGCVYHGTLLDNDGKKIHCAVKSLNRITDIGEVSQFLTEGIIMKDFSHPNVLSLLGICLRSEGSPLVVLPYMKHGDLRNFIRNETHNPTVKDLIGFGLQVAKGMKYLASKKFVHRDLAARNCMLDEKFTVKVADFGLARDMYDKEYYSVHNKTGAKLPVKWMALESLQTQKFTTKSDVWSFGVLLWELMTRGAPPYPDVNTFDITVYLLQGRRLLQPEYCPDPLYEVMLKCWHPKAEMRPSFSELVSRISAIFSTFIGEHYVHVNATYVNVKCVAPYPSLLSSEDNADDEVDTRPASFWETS
Description for A549: Antiproliferative activity against human A549 cells by MTT assay

One may read the IC50 as the concentration that gives 50% inhibition. Read a low IC50 as inhibition by little substance. For the molecule `O=C(Nc1cccc(-n2cc(CNc3ccc(N4CC(O)C4)c(C(=O)N4CCOCC4)c3)nn2)c1)c1cc(F)cc(F)c1`, the results for the IC50 with KARPAS-299, with NCI-H2228 [1] and in the assay on A549 were 594 nM, 1610 nM and above 10000 nM, respectively.
The inhibition is the share of the control response that was lost under treatment. Turning to `O=C(Nc1cccc(-n2cc(CNc3ccc(N4CCC(O)CC4)c(C(=O)N4CCCC4)c3)nn2)c1)c1cc(F)cc(F)c1`, the IC50 in the assay on KARPAS-299 is 51 nM; in the assay with NCI-H2228 [1], 175 nM; in [2], 3.7 nM; in assay [3] it was 6.8 nM; in assay [4] it was above 1000 nM; in assay [5], above 1000 nM. The molecule further came in with an IC50 with A549 above 10000 nM. The Activity entry in the assay on NCI-H2228 [6], in the assay with NCI-H2228 [7] and in the assay on NCI-H2228 [10] was “Dose-Dependent Effect” each time. Further, in the assay on NCI-H2228 [8], the inhibition result is “Dose-Dependent Effect”. In addition, testing at 1 µM with NCI-H2228 [9] gave an inhibition of 100%.
Consider `O=C(Nc1cccc(-n2cc(CNc3ccc(N4CCCCC4)c(C(=O)N4CCCCC4)c3)nn2)c1)c1cc(F)cc(F)c1`, for which the IC50 in the assay with KARPAS-299 was 272 nM; in the assay with NCI-H2228 [1] it was 1020 nM; in the assay on A549, above 10000 nM.
On the same counts, the results for `CC1CCN(c2ccc(NCc3cn(-c4cccc(NC(=O)c5cc(F)cc(F)c5)c4)nn3)cc2C(=O)N(C)C)CC1` are 191 nM, 881 nM and 5790 nM.
In the case of `CN(C)C(=O)c1cc(NCc2cn(-c3cccc(NC(=O)c4cc(F)cc(F)c4)c3)nn2)ccc1NCCO`, the values for the IC50 in the assay with KARPAS-299, in the assay with NCI-H2228 [1] and in the assay with A549 were 492 nM, 1790 nM and 7990 nM, respectively.
On to `CN(C)c1ccc(NCc2cn(-c3cccc(NC(=O)c4cc(F)cc(F)c4)c3)nn2)cc1C(=O)N1CCOCC1`, for which the IC50 with KARPAS-299 was 1760 nM; in the assay on NCI-H2228 [1], 7890 nM; in the assay with A549, above 10000 nM.
For the molecule `O=C(Nc1cccc(-n2cc(CNc3ccc(N4CCCCC4)c(C(=O)N4CCOCC4)c3)nn2)c1)c1cc(F)cc(F)c1`, the IC50 in the assay on KARPAS-299 was 1910 nM; in the assay with NCI-H2228 [1], 7520 nM; in the assay with A549, above 10000 nM.
Regarding `CC1CCN(c2ccc(NCc3cn(-c4cccc(NC(=O)c5cc(F)cc(F)c5)c4)nn3)cc2C(=O)N2CCCC2)CC1`, the half-maximal inhibitory concentration (IC50) in the assay with KARPAS-299 was 249 nM; in the assay on NCI-H2228 [1], 995 nM; in the assay with A549 it was above 10000 nM.
In the case of `CC1CCN(c2ccc(NCc3cn(-c4cccc(NC(=O)c5cc(F)cc(F)c5)c4)nn3)cc2C(=O)N2CCOCC2)CC1`, the values for the IC50 in the assay on KARPAS-299, in the assay on NCI-H2228 [1] and with A549 were 2310 nM, above 10000 nM and above 10000 nM, respectively.
On to `CNCc1cn(-c2cccc(NC(=O)c3cc(F)cc(F)c3)c2)nn1`, for which inhibition in assay [2] was half-maximal at 270 nM (IC50).
For the molecule `CN1CCN(c2ccc(NCc3cn(-c4cccc(NC(=O)c5cc(F)cc(F)c5)c4)nn3)cc2C(=O)N2CCOCC2)CC1`, the concentration for half-maximal inhibition (IC50) in the assay on KARPAS-299 is 452 nM; with NCI-H2228 [1] it was 1980 nM; in the assay on A549, above 10000 nM.
For `CN1CCN(c2ccc(NCc3cn(-c4cccc(NC(=O)c5cc(F)cc(F)c5)c4)nn3)cc2C(=O)N(C)C)CC1`, the half-maximal inhibitory concentration (IC50) with KARPAS-299 stood at 55 nM; in the assay with NCI-H2228 [1], 169 nM; in the assay with A549, 3750 nM.
Molecule `CN1CCN(c2ccc(NCc3cn(-c4cccc(NC(=O)c5cc(F)cc(F)c5)c4)nn3)cc2)CC1` came in with an IC50 in assay [2] of 55 nM.
Take `O=C(Nc1cccc(-n2cc(CNc3ccc(NCCO)c(C(=O)N4CCOCC4)c3)nn2)c1)c1cc(F)cc(F)c1`: the IC50 was 1540 nM in the assay on KARPAS-299, 6940 nM with NCI-H2228 [1] and above 10000 nM in the assay with A549.
On the same counts, the results for `CN1CCN(c2ccc(NCc3cn(-c4cccc(NC(=O)c5cc(F)cc(F)c5)c4)nn3)cc2C(=O)N2CCCC2)CC1` are 79 nM, 362 nM and above 10000 nM.
Turning to `O=C(Nc1cccc(-n2cc(CNc3ccc(N4CCC(O)CC4)c(C(=O)N4CCCCC4)c3)nn2)c1)c1cc(F)cc(F)c1`, the concentration for half-maximal inhibition (IC50) in the assay on KARPAS-299 was 57 nM; with NCI-H2228 [1] it was 192 nM; in assay [2], 8.6 nM; in [3] it was 17.6 nM; in assay [4], above 1000 nM; in [5] it was above 1000 nM. The IC50 with A549 was above 10000 nM.
`CN(C)c1ccc(NCc2cn(-c3cccc(NC(=O)c4cc(F)cc(F)c4)c3)nn2)cc1C(=O)N1CCCC1`: the IC50 in the assay with KARPAS-299 was 511 nM; in the assay with NCI-H2228 [1], 2690 nM; in the assay on A549, above 10000 nM.
As to `CN1CCN(c2ccc(NCc3cn(-c4cccc(NC(=O)c5cc(F)cc(F)c5)c4)nn3)cc2C(=O)N2CCCCC2)CC1`, the figures for the 50% inhibitory concentration (IC50) in the assay on KARPAS-299, in the assay with NCI-H2228 [1] and in the assay on A549 were 91 nM, 387 nM and above 10000 nM, respectively.
On the same counts, the results for `CC1CCN(c2ccc(NCc3cn(-c4cccc(NC(=O)c5cc(F)cc(F)c5)c4)nn3)cc2C(=O)N2CCCCC2)CC1` are 240 nM, 1030 nM and above 10000 nM.
Take `CN(C)C(=O)c1cc(NCc2cn(-c3cccc(NC(=O)c4cc(F)cc(F)c4)c3)nn2)ccc1N1CCC(O)CC1`: the half-inhibitory concentration (IC50) in the assay with KARPAS-299 worked out at 62 nM; with NCI-H2228 [1], 198 nM; with A549, 2050 nM.
For `CN(C)C(=O)c1cc(NCc2cn(-c3cccc(NC(=O)c4cc(F)cc(F)c4)c3)nn2)ccc1N1CCCCC1` the same measures were 157 nM, 760 nM and 4120 nM.
As to `O=C(Nc1cccc(-n2cc(CNc3ccc(N4CC(O)C4)c(C(=O)N4CCCCC4)c3)nn2)c1)c1cc(F)cc(F)c1`, the IC50 with KARPAS-299 is 55 nM; in the assay on NCI-H2228 [1], 193 nM; in assay [2], 5.8 nM; in assay [3], 12.9 nM; in assay [4] it was above 1000 nM; in assay [5], 796 nM. For the same molecule, the IC50 with A549 was above 10000 nM.
Take `O=C(Nc1cccc(-n2cc(CNc3ccc(NCCO)c(C(=O)N4CCCCC4)c3)nn2)c1)c1cc(F)cc(F)c1`: the half-inhibitory concentration (IC50) with KARPAS-299 was 602 nM; in the assay on NCI-H2228 [1], 2520 nM; in the assay on A549, above 10000 nM.
With `O=C(Nc1cccc(-n2cc(CNc3ccc(N4CCCCC4)c(C(=O)N4CCCC4)c3)nn2)c1)c1cc(F)cc(F)c1`, the concentration for half-maximal inhibition (IC50) in the assay on KARPAS-299 is 232 nM; with NCI-H2228 [1] it was 991 nM; in the assay with A549 it was above 10000 nM.
Take `O=C(Nc1cccc(-n2cc(CNc3ccc(N4CCC(O)CC4)c(C(=O)N4CCOCC4)c3)nn2)c1)c1cc(F)cc(F)c1`: the IC50 is 425 nM in the assay with KARPAS-299, 1860 nM in the assay on NCI-H2228 [1] and above 10000 nM in the assay with A549.
As for `CN(C)C(=O)c1cc(NCc2cn(-c3cccc(NC(=O)c4cc(F)cc(F)c4)c3)nn2)ccc1N(C)C`, the half-inhibitory concentration (IC50) in the assay with KARPAS-299 came to 356 nM; in the assay on NCI-H2228 [1], 1610 nM; in the assay on A549 it was 4930 nM.
With `CN(C)c1ccc(NCc2cn(-c3cccc(NC(=O)c4cc(F)cc(F)c4)c3)nn2)cc1C(=O)N1CCCCC1`, the IC50 is 589 nM in the assay on KARPAS-299, 2800 nM with NCI-H2228 [1] and above 10000 nM in the assay on A549.
